For series [1], the target named is T1, Sirt6 (Homo sapiens, UniProt Q8N6T7). The series is described as follows: Sirt6-dependent peptide deacetylation, Fluor de Lys. Particulars: for Activation Fold 100 μM: compound at 100 μM; for Activation Fold 100 μM / Activation Fold 30 μM: mean ± SD, at least two independent experiments; for effect on Sirt6 activity (time course): Fig. 3A; for Activation Fold 30 μM: compound at 30 μM.

Series [2] deals with H1299 cells. Kind of series: Colony formation assay. Format: cell-based. Particulars: 30 μM, one week.
Series [3] deals with R28 cells. Kind of series: MTT cell viability assay. Particulars: 100 μM, 24 hours. Format: cell-based. (In general: Tetrazolium dyes change colour on reduction, which living cells bring about.)
Series [4] has as its system H1299 cells. The series is described as follows: Acetylated H3K9 to total H3 in cancer cells. Format: cell-based. Particulars: 30 μM, 24 hours.
Series [5] relates to BV2 cells. Kind of series: LPS-induced inflammatory gene mRNA expression. The following applies: 30 μM pretreatment 30 minutes, 100 ng/mL LPS 6 hours.
For series [6], the system named is PLC/PRF/5 cells. Kind of series: Colony formation assay. The format is cell-based. Particulars: 30 μM, one week.
Series [7] addresses T2, Sirt1 (Homo sapiens, UniProt Q96EB6).
T2 sequence (Q96EB6 1-747): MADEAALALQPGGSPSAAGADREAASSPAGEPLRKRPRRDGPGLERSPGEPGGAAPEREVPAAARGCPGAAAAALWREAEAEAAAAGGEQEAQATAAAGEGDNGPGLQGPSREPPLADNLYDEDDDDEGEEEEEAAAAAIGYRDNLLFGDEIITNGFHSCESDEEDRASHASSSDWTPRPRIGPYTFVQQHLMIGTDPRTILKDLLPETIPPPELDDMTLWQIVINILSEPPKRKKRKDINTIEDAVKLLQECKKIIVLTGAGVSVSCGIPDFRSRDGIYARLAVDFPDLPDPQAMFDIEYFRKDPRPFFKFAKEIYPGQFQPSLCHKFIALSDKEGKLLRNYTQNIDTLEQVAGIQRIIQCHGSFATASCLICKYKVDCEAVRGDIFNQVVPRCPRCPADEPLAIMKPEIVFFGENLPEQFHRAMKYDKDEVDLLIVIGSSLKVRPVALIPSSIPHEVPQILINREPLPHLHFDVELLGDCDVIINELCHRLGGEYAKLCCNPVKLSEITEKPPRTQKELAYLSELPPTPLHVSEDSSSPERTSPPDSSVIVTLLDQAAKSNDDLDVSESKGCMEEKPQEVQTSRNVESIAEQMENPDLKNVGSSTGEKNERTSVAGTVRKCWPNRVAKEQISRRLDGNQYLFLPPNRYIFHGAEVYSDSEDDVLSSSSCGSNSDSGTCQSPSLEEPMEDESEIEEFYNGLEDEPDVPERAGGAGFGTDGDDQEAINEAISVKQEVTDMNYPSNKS
The series is described as follows: Sirt1 deacetylation Activity Assay Kit. The following applies: time course, Fig. 3.

Series [8] has as its system PLC/PRF/5 cells. Kind of series: Acetylated H3K9 to total H3 in cancer cells. The format is cell-based. The following applies: 30 μM, 24 hours.
Series [9] concerns the target T1, Sirt6. Format: biochemical. The following applies: 100 μM, 30 °C, 60 minutes.
Series [10] concerns the target T3, Sirt5 (Homo sapiens, UniProt Q9NXA8).
T3 sequence (Q9NXA8 37-310): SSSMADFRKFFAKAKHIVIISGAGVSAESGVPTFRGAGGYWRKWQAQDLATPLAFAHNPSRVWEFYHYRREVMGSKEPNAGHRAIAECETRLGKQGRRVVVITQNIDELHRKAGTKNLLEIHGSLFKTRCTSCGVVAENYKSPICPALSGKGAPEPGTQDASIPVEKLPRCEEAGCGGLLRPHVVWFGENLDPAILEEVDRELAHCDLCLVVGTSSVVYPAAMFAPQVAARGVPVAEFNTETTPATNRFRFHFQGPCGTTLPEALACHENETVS
Kind of series: Fluorogenic Sirt5 Assay Kit. The following applies: 100 μM compounds, 37 °C 30 min. Format: biochemical.

Series [11] has as its target T4, Sirt2 (Homo sapiens, UniProt Q8IXJ6).
T4 sequence (Q8IXJ6 1-389): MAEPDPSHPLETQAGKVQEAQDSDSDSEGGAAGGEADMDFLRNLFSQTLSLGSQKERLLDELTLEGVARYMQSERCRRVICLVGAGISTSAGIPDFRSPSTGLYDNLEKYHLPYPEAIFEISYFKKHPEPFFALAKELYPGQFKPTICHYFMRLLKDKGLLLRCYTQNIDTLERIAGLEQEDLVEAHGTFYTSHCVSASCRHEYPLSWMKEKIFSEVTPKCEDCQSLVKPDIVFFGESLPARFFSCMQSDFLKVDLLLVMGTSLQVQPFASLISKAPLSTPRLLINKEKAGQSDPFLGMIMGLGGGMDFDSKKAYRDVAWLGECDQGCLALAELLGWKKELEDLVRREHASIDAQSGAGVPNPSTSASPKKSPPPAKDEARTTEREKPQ
The series is described as follows: Sirt2 deacetylation Activity Assay Kit. Particulars: time course, Fig. 3.

Molecules are shown by their SMILES. “Also recorded” adds a separate entry of the source.

T1 sequence (Q8N6T7 whole entry): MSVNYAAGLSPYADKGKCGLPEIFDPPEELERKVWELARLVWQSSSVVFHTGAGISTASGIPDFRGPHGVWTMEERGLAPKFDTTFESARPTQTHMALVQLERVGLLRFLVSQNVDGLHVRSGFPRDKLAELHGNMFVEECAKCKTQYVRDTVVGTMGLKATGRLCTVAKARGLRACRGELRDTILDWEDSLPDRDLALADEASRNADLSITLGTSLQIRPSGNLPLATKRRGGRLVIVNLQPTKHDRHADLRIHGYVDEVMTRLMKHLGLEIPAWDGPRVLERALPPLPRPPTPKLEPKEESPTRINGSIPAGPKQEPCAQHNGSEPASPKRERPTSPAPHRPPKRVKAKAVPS

For `FC1(F)CCN(c2ncccc2C2Nc3ccccc3-n3cccc32)CC1` (stereo not drawn) [Compound 25, 4-(2-(4,4-Difluoropiperidin-1-yl)pyridin-3-yl)-4,5-dihydropyrrolo[1,2-a]quinoxaline], the “Activation Fold 100 μM” value in series [1] is recorded as ~ 2 fold.

As for `O=S1(=O)CCN(c2ncccc2C2Nc3ccccc3-n3cccc32)CC1` (stereo not drawn) [Compound 26, 4-(3-(4,5-Dihydropyrrolo[1,2-a]quinoxalin-4-yl)pyridin-2-yl)thiomorpholine 1,1-dioxide], the “Activation Fold 100 μM” value in [1] is reported as ~ 2 fold.

As to `OC1CCN(c2ncccc2C2Nc3ccccc3-n3cccc32)CC1` (stereo not drawn) [Compound 27, 1-(3-(4,5-Dihydropyrrolo[1,2-a]quinoxalin-4-yl)pyridin-2-yl)piperidin-4-ol], the “Activation Fold 100 μM” value in [1] is recorded as ~ 2 fold.

As for `OCCN1CCN(c2ncccc2C2Nc3ccccc3-n3cccc32)CC1` (stereo not drawn) [Compound 35, 2-(4-(3-(4,5-Dihydropyrrolo[1,2-a]quinoxalin-4-yl)pyridin-2-yl)piperazin-1-yl)ethan-1-ol], the “inhibition of colony formation” value in [2] is “only a slight inhibitory effect”. The “toxicity on R28 cells” value in series [3] was “no obvious toxicity”. For the same compound, in series [4], the “Sirt6-dependent deacetylation of H3K9 (acetylated H3K9 to total H3)” value (“Sirt6-dependent deacetylation of H3K9” below) was “no obvious influence”. Besides, in series [5], the ICAM-1 induction result is recorded as “slight inhibition”, the “LPS-induced expression of IL-1β” value is “strongly inhibited”, the “LPS-induced expression of IL-6” value is reported as “strongly inhibited” and the “LPS-induced expression of MCP-1” value is on record as “strongly inhibited”. Also, in series [5], the “LPS-induced expression of TNFα” value is given as “strongly inhibited”. In addition, in series [6], the “inhibition of colony formation” value was “only a slight inhibitory effect”. Besides, the “effect on Sirt1 deacetylation activity” value in series [7] is on record as “no significant effects”. In addition, in [8], the “Sirt6-dependent deacetylation of H3K9” value is recorded as “no obvious influence”. For the same compound, in [1], the “effect on Sirt6 activity (time course)” value was “specifically promoted”. Moreover, the “acetylation of H3K9 in the nucleosome test” value in [9] is “significantly decreased”. In series [10], the “effect on Sirt5 desuccinylation activity” value was “no significant effects”. In series [11], the “effect on Sirt2 deacetylation activity” value is recorded as “no significant effects”.

`COCCN1CCN(c2ncccc2C2Nc3ccccc3-n3cccc32)CC1` (stereo not drawn) [Compound 36, 4-(2-(4-(2-Methoxyethyl)piperazin-1-yl)pyridin-3-yl)-4,5-dihydropyrrolo[1,2-a]quinoxaline]: the “inhibition of colony formation” value in series [2] and in series [6] was “about half” each time. For the same compound, the “toxicity on R28 cells” value in series [3] is recorded as “no obvious toxicity”. Also, the “Sirt6-dependent deacetylation of H3K9” value in series [4] and in series [8] was “significantly activated Sirt6 to deacetylate H3K9” throughout. Also, the “decrease of acetylated H3K9 when Sirt6 knockdown by siRNA” value in series [4] (Sirt6 siRNA) and in series [8] (Sirt6 siRNA) was “abolished” throughout. Besides, in series [5], the “LPS-induced expression of IL-1β” value was “strongly inhibited”. In series [5], the “LPS-induced expression of IL-6” value is given as “strongly inhibited”. Also, the “LPS-induced expression of MCP-1” value in series [5] is “strongly inhibited”. Moreover, the “LPS-induced expression of TNFα” value in series [5] is reported as “strongly inhibited”. Further, in series [7], the “effect on Sirt1 deacetylation activity” value is recorded as “no significant effects”. Moreover, the “effect on Sirt6 activity (time course)” value in series [1] was “specifically promoted”. Further, the “acetylation of H3K9 in the nucleosome test” value in [9] is “significantly decreased”. In addition, the “effect on Sirt5 desuccinylation activity” value in series [10] is “no significant effects”. The “effect on Sirt2 deacetylation activity” value in series [11] is reported as “no significant effects”.

On to `OC1CN(CCN2CCN(c3ncccc3C3Nc4ccccc4-n4cccc43)CC2)C1` (stereo not drawn) [Compound 46, 1-(2-(4-(3-(4,5-Dihydropyrrolo[1,2-a]quinoxalin-4-yl)pyridin-2-yl)piperazin-1-yl)ethyl)azetidin-3-ol], for which, in [5], the “LPS-induced CXCL10 expression” value is listed as “significantly repressed”, the “LPS-induced expression of IL-1β” value is given as “strongly inhibited; also recorded: almost reversed”, the “LPS-induced expression of IL-6” value is “strongly inhibited; also recorded: almost reversed” and the “LPS-induced expression of MCP-1” value was “strongly inhibited; also recorded: almost reversed”. For the same compound, in series [5], the “LPS-induced expression of TNFα” value is listed as “strongly inhibited”, the “LPS-induced iNOS expression” value is on record as “significantly repressed” and the VCAM-1 induction result is recorded as “obviously inhibit”. Besides, in series [7], the “effect on Sirt1 deacetylation activity” value is given as “no significant effects”. Further, in [1], the “effect on Sirt6 activity (time course)” value is given as “specifically promoted”. Besides, in series [9], the “acetylation of H3K9 in the nucleosome test” value is “significantly decreased”. For the same compound, the “effect on Sirt5 desuccinylation activity” value in series [10] was “no significant effects”. The “effect on Sirt2 deacetylation activity” value in series [11] is reported as “no significant effects”.

Consider `c1ccc2c(c1)NC(c1cccnc1N1CCN(CCN3CCCC3)CC1)c1cccn1-2` (stereo not drawn) [Compound 47, 4-(2-(4-(2-(Pyrrolidin-1-yl)ethyl)piperazin-1-yl)pyridin-3-yl)-4,5-dihydropyrrolo[1,2-a]quinoxaline], for which, in series [5], the ICAM-1 induction result is recorded as “slight inhibition”, the “LPS-induced CXCL10 expression” value is given as “significantly repressed”, the “LPS-induced expression of IL-1β” value is reported as “strongly inhibited; also recorded: almost reversed” and the “LPS-induced expression of IL-6” value was “strongly inhibited; also recorded: almost reversed”. In addition, in series [5], the “LPS-induced expression of MCP-1” value is “strongly inhibited; also recorded: almost reversed”, the “LPS-induced expression of TNFα” value is reported as “strongly inhibited”, the “LPS-induced iNOS expression” value was “significantly repressed” and the VCAM-1 induction result is reported as “obviously inhibit”. For the same compound, in series [7], the “effect on Sirt1 deacetylation activity” value is reported as “no significant effects”. For the same compound, in series [1], the “effect on Sirt6 activity (time course)” value is reported as “specifically promoted”, the “Activation Fold 30 μM” value is 4.80 ± 0.19 fold and the “Activation Fold 100 μM” value worked out at 5.38 ± 0.29 fold. For the same compound, in [9], the “acetylation of H3K9 in the nucleosome test” value is on record as “no effect”. In addition, in series [10], the “effect on Sirt5 desuccinylation activity” value was “no significant effects”. The “effect on Sirt2 deacetylation activity” value in [11] is “no significant effects”.

As for `c1ccc2c(c1)NC(c1cccnc1N1CCN(CCn3ccnc3)CC1)c1cccn1-2` (stereo not drawn) [Compound 50, 4-(2-(4-(2-(1H-Imidazol-1-yl)ethyl)piperazin-1-yl)pyridin-3-yl)-4,5-dihydropyrrolo[1,2-a]quinoxaline], in [5], the ICAM-1 induction result is recorded as “slight inhibition”, the “LPS-induced CXCL10 expression” value is recorded as “significantly repressed”, the “LPS-induced expression of IL-1β” value is “strongly inhibited; also recorded: almost reversed” and the “LPS-induced expression of IL-6” value is given as “strongly inhibited; also recorded: almost reversed”. Also, in series [5], the “LPS-induced expression of MCP-1” value was “strongly inhibited; also recorded: almost reversed”, the “LPS-induced expression of TNFα” value is on record as “strongly inhibited” and the “LPS-induced iNOS expression” value was “significantly repressed”. Also, the “effect on Sirt1 deacetylation activity” value in series [7] is on record as “no significant effects”. Also, in [1], the “effect on Sirt6 activity (time course)” value is “specifically promoted”, the “Activation Fold 30 μM” value stood at 3.34 ± 0.19 fold and the “Activation Fold 100 μM” value stood at 6.29 ± 0.02 fold. In addition, the “acetylation of H3K9 in the nucleosome test” value in series [9] is on record as “significantly decreased”. Also, the “effect on Sirt5 desuccinylation activity” value in [10] is recorded as “no significant effects”. For the same compound, the “effect on Sirt2 deacetylation activity” value in [11] is on record as “no significant effects”.

The values above are taken from paper PMC9805530 (European journal of medicinal chemistry, 2022).
